# In US20090110671A1, “AGENT FOR ENHANCHING THE PRODUCTION OF COLLAGEN AND IT'S USE” (priority 2005, published 2009):
# Test system: skin wrinkles/finely-wrinkles and flabby skin
# Experiment: Experiment 5: self-evaluation of lotions on skin wrinkles/finely-wrinkles and flabby skin, four months
# Format: in vivo, human
# Details: 4 months; for Evaluation A (remarkably efficacious) / Evaluation B (efficacious) / Evaluation C (slightly efficacious) / Evaluation D (inefficacious): lotion
# Experimental: The following experiment was conducted to examine the influence of α,α-trehalose or saccharide derivatives thereof and hyaluronic acid and/or chondroitin sulfate on the skin. Since there exists a relatively constant amount of L-ascorbic acid in vivo, the collagen production by L-ascorbic acid proceeds constantly. Based on the following basic formulation for lotion and the combination and composition in Table 5, 100 parts by weights of a lotion was prepared by adding to the basic formulation sodium hyaluronate, chondroitin sulfate, hydrous crystalline α,α-trehalose, a cosmetic grade specimen commercialized by Hayashibara Biochemical Laboratories Inc., Okayama, Japan, and “[…]”, a product name of a syrup having a solid content of about 75% and containing, on a dry solid basis, about 53% by weight of α-maltosyl α,α-trehalose and about 5% by weight of other saccharide derivatives of α,α-trehalose, and an adequate amount of refined water. In Table 5, the respective amounts of the added saccharide are expressed on a dry solid basis. The syrup containing saccharide derivatives of α,α-trehalose was added in an amount of the saccharide derivatives as shown in Table 5. Eleven women as volunteers, who had been suffering from skin wrinkles/finely-wrinkles or flabby skin, were allowed to wash their faces with any of the lotions having compositions in Table 5 three times a day for four months and then allowed to evaluate themselves about their face-skin conditions by comparing with those before use of the lotions.
# [1] = added saccharide 0.05 part by weight, 3 times a day
# [2] = added saccharide 0.1 part by weight, 3 times a day
# [3] = added saccharide 1 part by weight, 3 times a day
# [4] = added saccharide 2 + chondroitin sulfate 0.5 part by weight
# [5] = added saccharide 2 + sodium hyaluronate 0.25 + chondroitin sulfate 0.25 part by weight
# [6] = added saccharide 2 + sodium hyaluronate 0.5 part by weight
# [7] = added saccharide 2 parts by weight, 3 times a day
# [8] = added saccharide 10 parts by weight, 3 times a day
# [9] = added saccharide 20 parts by weight, 3 times a day
compound,measurement,setting,value
"OC[C@H]1O[C@H](O[C@H]2O[C@H](CO)[C@@H](O)[C@H](O)[C@H]2O)[C@H](O)[C@@H](O)[C@@H]1O [α,α-trehalose]",Evaluation A (remarkably efficacious),[1],0 number of volunteers
same,Evaluation B (efficacious),[1],0 number of volunteers
same,Evaluation C (slightly efficacious),[1],3 number of volunteers
same,Evaluation D (inefficacious),[1],8 number of volunteers
same,Evaluation A (remarkably efficacious),[2],0 number of volunteers
same,Evaluation B (efficacious),[2],2 number of volunteers
same,Evaluation C (slightly efficacious),[2],5 number of volunteers
same,Evaluation D (inefficacious),[2],4 number of volunteers
same,Evaluation A (remarkably efficacious),[3],2 number of volunteers
same,Evaluation B (efficacious),[3],2 number of volunteers
same,Evaluation C (slightly efficacious),[3],6 number of volunteers
same,Evaluation D (inefficacious),[3],1 number of volunteers
same,Evaluation A (remarkably efficacious),[4],3 number of volunteers
same,Evaluation B (efficacious),[4],5 number of volunteers
same,Evaluation C (slightly efficacious),[4],3 number of volunteers
same,Evaluation D (inefficacious),[4],0 number of volunteers
same,Evaluation A (remarkably efficacious),[5],6 number of volunteers
same,Evaluation B (efficacious),[5],3 number of volunteers
same,Evaluation C (slightly efficacious),[5],2 number of volunteers
same,Evaluation D (inefficacious),[5],0 number of volunteers
same,Evaluation A (remarkably efficacious),[6],3 number of volunteers
same,Evaluation B (efficacious),[6],4 number of volunteers
same,Evaluation C (slightly efficacious),[6],3 number of volunteers
same,Evaluation D (inefficacious),[6],1 number of volunteers
same,Evaluation A (remarkably efficacious),[7],2 number of volunteers
same,Evaluation B (efficacious),[7],4 number of volunteers
same,Evaluation C (slightly efficacious),[7],4 number of volunteers
same,Evaluation D (inefficacious),[7],1 number of volunteers
same,Evaluation A (remarkably efficacious),[8],3 number of volunteers
same,Evaluation B (efficacious),[8],3 number of volunteers
same,Evaluation C (slightly efficacious),[8],5 number of volunteers
same,Evaluation D (inefficacious),[8],0 number of volunteers
same,Evaluation A (remarkably efficacious),[9],3 number of volunteers
same,Evaluation B (efficacious),[9],3 number of volunteers
same,Evaluation C (slightly efficacious),[9],5 number of volunteers
same,Evaluation D (inefficacious),[9],0 number of volunteers
same,volunteers who evaluated the lotions efficacious or more,lotions with 2 to 20 parts by weight of saccharide,six
